Experimental findings from a melting point compilation (Tetko et al.; mined from patent text by program, amines drawn as free bases though some values may be those of a salt) are described below.

What is called melting point is the temperature, or range, at which the solid turns liquid.

For the compound `Oc1ccc(-c2ncc3ncc(Cl)cc3n2)cc1`, the melting point fell in the range of 231 to 232 °C. Then `CCOC(=O)Cc1nn(Cc2nc3cc(C(F)(F)F)ccc3s2)c(=O)c2ccccc12`, with 131 to 132 °C; and `Cn1cc(O)c(=O)c2cc(F)c(F)cc21`, with 264 to 265 °C; and `COc1cc2c(cc1Br)C=C(C)N(C(=O)C1CC1)N=C2c1ccc(N)cc1`, with 224 to 226 °C. Then `COC(=O)c1cncc(OCc2nc(-c3ccccc3)oc2C)c1`, with 119 to 120 °C. Then `CCc1nc2c(O)c(CCC(=O)c3ccccc3)c(C(=O)N(C)C)cc2n1C`, with 177 to 180 °C. With `O=c1n(CCN2CCN(c3ccc4cc[nH]c4c3)CC2)c2ccccc2n1C1=CCCCC1`, the melting point is 171 to 173 °C.

In turn, `CCOC(=O)c1c(C(C)C)nc2c(c1-c1ccc(F)cc1)CCCC2(C)C` returned a melting point of 124 to 126 °C. Then `CCOC(=O)CC(=O)c1cc(Oc2ccccc2)c(NS(C)(=O)=O)cc1O`, with 112 °C.

Turning to `O=C1CCCc2nc3ccccc3c(NCc3ccc(OCc4ccccc4)cc3)c21`, the melting point was 153 to 157 °C.

`Cc1oc(-c2ccccc2)nc1C(=O)c1cc2cc(Br)ccc2o1` showed a melting point of 212 to 213 °C. On to `COc1ccc(N2C3CCC2CC(=O)C3)cc1`, for which the melting point was in the range of 133 to 134 °C. `CN1CCCCc2cc(-c3cnc(N)nc3N)ccc21`: the melting point lay in the range of 206 to 207 °C. For the compound `CCCNC(=O)C(C)=Cc1ccc2[nH]cc(Cc3ccc(C(=O)OC)cc3OC)c2c1`, the melting point fell in the range of 55 to 60 °C. On to `COc1ccc(C(=O)Nc2c(Cl)cncc2Cl)cc1OC1CCCC1F` (stereo not given), for which the melting point lay in the range of 167 to 169 °C. Next, `CCOC(=O)c1cnc2c(OC)cccc2c1Nc1cscc1C`: 162 to 164 °C; `CC(C)(C)c1ccc(Cn2cc(C(=O)C(=O)O)c3cc(-c4ccc(C(C)(C)C)cc4)ccc32)cc1`: 111 to 112 °C. Then `C#CCN(C(C)C)C(C)CC1=C2c3ccc(OC)cc3CCC2CCNC1=O` (stereo not given), with 146 to 148 °C; and `N#CCCN(C=O)CC(=O)O`, with 112 to 114 °C. Then `Cc1cc2oc(=O)c(NC(=O)Nc3ccc(F)cc3F)c(-c3ccccc3C)c2cc1C`, with 215 to 217 °C. Turning to `O=C(NC1CCC(CCN2CCN(c3nccc4c3OCC4)CC2)CC1)C1CCCOC1` (racemic), the melting point was found to be 203 °C.

Turning to `CN1CCC(OC(c2ccccc2)c2nc3cc(Cl)c(Cl)cc3[nH]2)CC1` (stereo not given), the melting point is 221 °C. On to `CCCCCC(=O)NS(=O)(=O)/C=C/c1cc(OC(C)C)nn1Cc1ccc(Cl)cc1Cl`, for which the melting point lay in the range of 73 to 75 °C. With `CCC1(C)CC(S(=O)Cc2c(F)cccc2F)=NO1` (stereo not given), the melting point was less than 30 °C. Next, `O=c1[nH]c(C2CCCN(Cc3ccccc3)C2)cc2ccccc12` (stereo not given): 176 to 178 °C. Take `COc1ccc2nc(Cl)nc(Nc3ccccc3)c2c1`: the melting point lay in the range of 177 to 179 °C. Turning to `Nc1ccc(Oc2ccc(C(c3ccc(Oc4ccc(N)c(O)c4)cc3)(C(F)(F)F)C(F)(F)F)cc2)cc1O`, the melting point lay within 178 to 181 °C. Then `COc1ccc2c(-c3ccc(OCCN4CCOCC4)cc3)c(Cc3ccc(Cl)cc3)oc2c1`, with 126 to 128 °C. Then `CC(=C[N+](=O)[O-])c1ccccc1O`, with 110 to 112 °C; and `CC1(C)CC(=C(c2ccc(O)cc2)c2ccc(-c3ccoc3)cc2)CC(C)(C)C1`, with 128 to 129 °C.

Take `CCCCCCCCCCCCP(=O)(O)CCCN`: the melting point was 175 to 177 °C.

On to `O=C(O)Cc1ccc(OCc2ccc(Cl)cc2C(=O)O)cc1`, for which the melting point was in the range of 205 to 208 °C. Then `Cc1noc(C)c1Cn1cc(NC(=O)[C@@H](C)c2ccccc2)cn1`, with 108 to 110 °C.

The compound `Cn1c(=O)c2cnc(N)nc2n(C)c1=O` came in with a melting point of more than 300 °C. Next, `O=S(Cc1cccc(C(F)(F)F)c1)c1nc2cnccc2[nH]1` (stereo not given): 194 to 197 °C.
